In US20230022157A1 (Achillion Pharmaceuticals, Inc., priority 2018, published 2023):

target: T1, Human Factor D (Homo sapiens, UniProt P00746); assay: Human Factor D Assay; assay type: biochemical; conditions: Human Factor D 80 nM, substrate Z-L-Lys-SBzl; Table 2; read-out: IC50 (Stars)
T1 construct: purified from human serum; purchased Complement Technology, Inc; host or cells: human serum (natural protein, not recombinant)
Procedure, shortened: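 Serum-purified human factor D (80 nM final) preincubated 5 min at room temperature with test compound in 50 mM Tris, 1M NaCl, pH 7.5. Z-L-Lys-SBzl substrate and DTNB then added, each at 100 μM final. IC50 from nonlinear regression of reaction rate against compound concentration.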

T1 sequence (P00746 26-253): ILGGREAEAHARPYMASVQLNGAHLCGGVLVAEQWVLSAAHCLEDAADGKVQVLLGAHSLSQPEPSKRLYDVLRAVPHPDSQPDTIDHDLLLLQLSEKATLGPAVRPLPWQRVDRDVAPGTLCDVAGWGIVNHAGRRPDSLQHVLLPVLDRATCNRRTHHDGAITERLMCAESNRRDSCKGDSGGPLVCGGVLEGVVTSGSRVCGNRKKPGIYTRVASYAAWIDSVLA

| Structure (SMILES) | IC50 |
| --- | --- |
| CC(=O)c1cn(CC(=O)N2[C@H](C(=O)Nc3nc(C(F)(F)F)ccc3Cl)C[C@@]3(C)C[C@@H]23)c2c(C)cc(-c3cnc(C)nc3)cc12 [Compound 233, (1R,3S,5R)-2-(2-(3-acetyl-7-methyl-5-(2-methylpyrimidin-5-yl)-1H-indol-1-yl)acetyl)-N-(3-chloro-6-(trifluoromethyl)pyridin-2-yl)-5-methyl-2-azabicyclo[3.1.0]hexane-3-carboxamide] | < 1000 nM |
| CC(=O)c1nn(CC(=O)N2[C@H](C(=O)Nc3cc(F)cc(Br)n3)C[C@@]3(C)C[C@@H]23)c2c(C)cc(-c3cnc(C(C)O)nc3)cc12 (stereo partly drawn) [Compound 124, (1R,3S,5R)-2-(2-(3-acetyl-5-(2-(1-hydroxyethyl)pyrimidin-5-yl)-7-methyl-1H-indazol-1-yl)acetyl)-N-(6-bromo-4-fluoropyridin-2-yl)-5-methyl-2-azabicyclo[3.1.0]hexane-3-carboxamide] | < 1000 nM |
| CC(=O)c1cn(CC(=O)N2[C@H](C(=O)Nc3nc(Br)c(F)cc3C)C[C@@]3(C)C[C@@H]23)c2c(C)cc(-c3cnc4cc(C)nn4c3)cc12 [Compound 209, (1R,3S,5R)-2-(2-(3-acetyl-7-methyl-5-(2-methylpyrazolo[1,5-a]pyrimidin-6-yl)-1H-indol-1-yl)acetyl)-N-(6-bromo-5-fluoro-3-methylpyridin-2-yl)-5-methyl-2-azabicyclo[3.1.0]hexane-3-carboxamide] | < 1000 nM |
| COc1cc(Br)nc(NC(=O)[C@@H]2C[C@@]3(C)C[C@H]3N2C(=O)Cn2nc(C(C)=O)c3cc(-c4cnc(CO)nc4)ccc32)c1 [Compound 67, (1R,3S,5R)-2-(2-(3-acetyl-5-(2-(hydroxymethyl)pyrimidin-5-yl)-1H-indazol-1-yl)acetyl)-N-(6-bromo-4-methoxypyridin-2-yl)-5-methyl-2-azabicyclo[3.1.0]hexane-3-carboxamide] | < 1000 nM |
| CCCCC(NC(=O)[C@@H]1C[C@@]2(C)C[C@H]2N1C(=O)Cn1nc(C(C)=O)c2cc(-c3cnc(C)nc3)cc(C)c21)C(F)(F)F (stereo partly drawn) [Compound 88, (1R,3S,5R)-2-{2-[3-acetyl-7-methyl-5-(2-methylpyrimidin-5-yl)indazol-1-yl]acetyl}-5-methyl-N-(1,1,1-trifluorohexan-2-yl)-2-azabicyclo[3.1.0]hexane-3-carboxamide] | < 1000 nM |
| COCc1ccc(Br)nc1NC(=O)[C@@H]1C[C@@]2(C)C[C@H]2N1C(=O)Cn1cc(C(C)=O)c2cc(-c3cnc4cc(C)nn4c3)cc(C)c21 [Compound 215, (1R,3S,5R)-2-(2-(3-acetyl-7-methyl-5-(2-methylpyrazolo[1,5-a]pyrimidin-6-yl)-1H-indol-1-yl)acetyl)-N-(6-bromo-3-(methoxymethyl)pyridin-2-yl)-5-methyl-2-azabicyclo[3.1.0]hexane-3-carboxamide] | < 1000 nM |
| CC(=O)c1nn(CC(=O)N2[C@H](C(=O)NC(C)Cc3ccc(O)cc3)C[C@@]3(C)C[C@@H]23)c2c(C)cc(-c3cnc(C)nc3)cc12 (stereo partly drawn) [Compound 147, (1R,3S,5R)-2-{2-[3-acetyl-7-methyl-5-(2-methylpyrimidin-5-yl)indazol-1-yl]acetyl}-N-[1-(4-hydroxyphenyl)propan-2-yl]-5-methyl-2-azabicyclo[3.1.0]hexane-3-carboxamide] | < 1000 nM |
| CC(=O)c1nn(CC(=O)N2[C@H](C(=O)NC(C)Cc3cccc(F)c3)C[C@@]3(C)C[C@@H]23)c2c(C)cc(-c3cnc(C)nc3)cc12 (stereo partly drawn) [Compound 187, (1R,3S,5R)-2-{2-[3-acetyl-7-methyl-5-(2-methylpyrimidin-5-yl)indazol-1-yl]acetyl}-N-[1-(3-fluorophenyl)propan-2-yl]-5-methyl-2-azabicyclo[3.1.0]hexane-3-carboxamide] | < 1000 nM |
| COc1ncc(-c2cc(C)c3c(c2)c(C(C)=O)nn3CC(=O)N2[C@H](C(=O)Nc3nc(Br)ccc3C)C[C@@]3(C)C[C@@H]23)cn1 [Compound 52, (1R,3S,5R)-2-(2-(3-acetyl-5-(2-methoxypyrimidin-5-yl)-7-methyl-1H-indazol-1-yl)acetyl)-N-(6-bromo-3-methylpyridin-2-yl)-5-methyl-2-azabicyclo[3.1.0]hexane-3-carboxamide] | < 1000 nM |
